Results as given in article PMC6858373 (Scientific Reports, 2019).
Structures can show the parent of a compound that is named as a salt. Where two headings read alike, the source gives them in different places.

Assays:
in vitro = conditions: human
[1] = target: T1, FGF14:Nav1.6 C-tail complex (Homo sapiens, UniProt Q92915+Q9UQD0); assay: Split-luciferase complementation assay (LCA) in Clone V double stable HEK293 cells; type: cell-based
T1 construct: polymerase chain reaction (PCR) amplification of the FGF14 open reading frame (nt 1–855); C-terminal fragment of Nav1.6 (amino acids 1763–1976) fused with CD4ΔC-tail (amino acids 1–395); expressed in transfected cells

[2] = target: full-length P. pyralis luciferase (Photinus pyralis, UniProt P08659, K549A/L550V/N119G/N50D/S548I); type: cell-based
Clone V cells = conditions: human
[3] = CC_NCI screening, biological replicate Set 1, normalized to on-plate 0.3% DMSO controls
[4] = CC_NCI screening, biological replicate Set 2, normalized to on-plate 0.3% DMSO controls
[5] = CC_NCI screening, normalized to on-plate 0.3% DMSO controls
[6] = CC_NCI screening, biological replicate Set 1, normalized to on-plate 0.3% DMSO controls (n=16 per plate)
[7] = CC_NCI screening, biological replicate Set 2, normalized to on-plate 0.3% DMSO controls (n=16 per plate)
[8] = average of Set 1 and Set 2, normalized to 0.3% DMSO controls

T1 sequence (Q92915 1-252 isoform Q92915-2): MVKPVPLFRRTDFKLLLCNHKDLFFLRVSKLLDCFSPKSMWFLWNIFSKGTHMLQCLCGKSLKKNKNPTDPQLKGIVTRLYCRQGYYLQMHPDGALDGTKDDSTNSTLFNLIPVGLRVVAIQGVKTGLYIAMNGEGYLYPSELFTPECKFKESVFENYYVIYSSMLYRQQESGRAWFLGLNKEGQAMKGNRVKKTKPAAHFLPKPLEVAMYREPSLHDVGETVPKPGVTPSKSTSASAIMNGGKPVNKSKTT
T1 sequence (Q9UQD0 1763-1976 limits assumed): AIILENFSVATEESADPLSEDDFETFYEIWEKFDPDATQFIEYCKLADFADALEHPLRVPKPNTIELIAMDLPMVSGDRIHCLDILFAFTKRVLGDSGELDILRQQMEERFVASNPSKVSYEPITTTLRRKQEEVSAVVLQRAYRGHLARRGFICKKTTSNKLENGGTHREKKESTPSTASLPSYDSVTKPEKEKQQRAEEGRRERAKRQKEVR
full-length P. pyralis luciferase, sequence (P08659 whole entry N50D/N119G/S548I/K549A/L550V, looked up): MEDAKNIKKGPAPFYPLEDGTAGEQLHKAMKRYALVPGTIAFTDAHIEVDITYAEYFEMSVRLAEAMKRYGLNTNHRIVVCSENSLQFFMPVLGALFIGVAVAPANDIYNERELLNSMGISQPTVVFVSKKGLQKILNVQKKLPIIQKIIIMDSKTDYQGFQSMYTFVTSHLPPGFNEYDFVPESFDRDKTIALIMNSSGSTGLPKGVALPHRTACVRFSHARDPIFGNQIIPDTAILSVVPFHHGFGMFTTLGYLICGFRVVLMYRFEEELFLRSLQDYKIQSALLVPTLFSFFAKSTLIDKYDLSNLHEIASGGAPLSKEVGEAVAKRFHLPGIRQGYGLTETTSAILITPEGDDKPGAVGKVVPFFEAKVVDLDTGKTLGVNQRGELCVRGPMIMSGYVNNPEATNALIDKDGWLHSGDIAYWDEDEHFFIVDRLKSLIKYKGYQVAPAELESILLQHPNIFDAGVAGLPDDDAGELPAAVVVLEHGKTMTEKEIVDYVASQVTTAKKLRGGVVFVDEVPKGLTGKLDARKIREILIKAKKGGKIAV

SMILES	viability (in vitro) [%]	Split Luciferase Assay % Lum Set 1 [1] [%]	Split Luciferase Assay %Lum Avg [1] [%]	Split Luciferase Assay %Lum Set 2 [1] [%]	Split Luciferase Assay Z-score Set 1 [1, 3]	Split Luciferase Assay Z-score Set 2 [1, 4]	Luciferase Assay % Lum (full-length luciferase counter-screen) [2, 5] [%]	Luciferase Assay Z-score (full-length luciferase counter-screen) [2, 5]	Toxicity Assay Z-score (CTB cell viability) (Clone V cells)	viability at 16 h, 30 µM (in vitro; Clone V cells) [%]	Split Luciferase Assay % Lum Set 1 [1, 6] [%]	Split Luciferase Assay %Lum Set 2 [1, 7] [%]	Split Luciferase Assay %Lum Avg [1, 8] [%]	Toxicity Assay Z-score (CTB cell viability) (Clone V cells; 16 h, 30 µM)	viability at 16 h, 30 µM (in vitro) [%]	Luciferase Assay % Lum (full-length luciferase counter-screen) [2] [%]	Luciferase Assay Z-score (full-length luciferase counter-screen) [2]	Split Luciferase Assay Z-score Set 1 [1]	Split Luciferase Assay Z-score Set 2 [1]
O=NN(CCCl)C(=O)NC1CCCCC1 [Lomustine]	103	101.43	116.25	131.08	0.12	2.53	109.33	1.20	0.41	–	–	–	–	–	–	–	–	–	–
CC1(C)CNc2cc(NC(=O)c3cccnc3NCc3ccncc3)ccc21 [MOTESANIB]	–	–	–	–	-1.77	-0.86	76.36	-3.03	–	99.7	78.05	89.47	83.76	-0.04	–	–	–	–	–
CC(=O)O[C@]1(C(C)=O)CC[C@H]2[C@@H]3C=C(C)C4=CC(=O)CC[C@]4(C)[C@H]3CC[C@@]21C [Megestrol acetate]	–	–	–	–	4.24	2.87	–	–	–	–	152.52	135.24	143.88	0.79	106	99.64	-0.05	–	–
Sc1ncnc2nc[nH]c12 [Mercaptopurine]	–	–	–	–	1.52	1.01	102.01	0.26	–	–	118.82	112.35	115.59	0.87	106	–	–	–	–
CN(Cc1cnc2nc(N)nc(N)c2n1)c1ccc(C(=O)N[C@@H](CCC(=O)O)C(=O)O)cc1 [Methotrexate]	–	–	–	–	0.73	0.24	94.27	-0.73	–	102	109.04	–	106.01	0.27	–	–	–	–	–
CO[C@@]12[C@H](COC(N)=O)C3=C(C(=O)C(C)=C(N)C3=O)N1C[C@@H]1N[C@@H]12 [Mitomycin]	118	–	–	–	0.73	-0.01	110.98	1.41	2.45	–	109.04	99.87	104.45	–	–	–	–	–	–
Clc1ccc(C(c2ccccc2Cl)C(Cl)Cl)cc1 (stereo not shown) [Mitotane]	–	–	–	–	-6.12	-5.17	54.78	-5.79	–	–	24.24	36.41	30.33	-0.85	93.9	–	–	–	–
Oc1cccc(-c2nc(N3CCOCC3)c3oc4ncccc4c3n2)c1 [PI-103]	–	–	–	–	0.91	-0.43	–	0.79	–	119	111.21	94.67	102.94	2.64	–	–	–	–	–
CC(=O)O[C@H]1C(=O)[C@@]2(C)[C@H]([C@H](OC(=O)c3ccccc3)[C@]3(O)C[C@H](OC(=O)[C@H](O)[C@@H](NC(=O)c4ccccc4)c4ccccc4)C(C)=C1C3(C)C)[C@]1(OC(C)=O)CO[C@@H]1C[C@@H]2O [Paclitaxel]	–	–	–	–	-1.03	-0.43	114.27	1.83	–	–	87.29	94.67	90.98	1.59	111	–	–	–	–
CNNCc1ccc(C(=O)NC(C)C)cc1 [Procarbazine hydrochloride]	–	–	–	–	1.52	-0.26	–	–	–	–	118.82	96.75	107.78	1.21	109	99.34	-0.08	–	–
COc1cc(F)c(F)c(Nc2ccc(I)cc2F)c1NS(=O)(=O)C1(C[C@H](O)CO)CC1 [RDEA119]	–	–	–	–	-7.09	-7.37	66.81	-4.25	–	–	12.28	9.36	10.82	0.34	102	–	–	–	–
CC/C(=C(\c1ccccc1)c1ccc(OCCN(C)C)cc1)c1ccccc1 [Tamoxifen citrate]	–	4.67	2.86	1.04	–	–	–	–	–	–	–	–	–	-7.92	43.4	59.05	-5.24	-7.70	-8.05
COc1cc([C@@H]2c3cc4c(cc3[C@@H](O[C@@H]3O[C@@H]5CO[C@@H](c6cccs6)O[C@H]5[C@H](O)[C@H]3O)[C@H]3COC(=O)[C@H]23)OCO4)cc(OC)c1O [Teniposide]	–	–	–	–	1.61	2.11	92.82	-0.92	–	105	119.91	125.88	122.89	0.66	–	–	–	–	–
S=P(N1CC1)(N1CC1)N1CC1 [Thiotepa]	–	104.69	115.28	125.88	0.38	2.11	95.81	-0.54	–	107	–	–	–	1.01	–	–	–	–	–
C1CN1c1nc(N2CC2)nc(N2CC2)n1 [Triethylenemelamine]	106	118.82	117.67	116.51	–	–	–	–	0.82	–	–	–	–	–	–	108.47	1.08	1.52	1.34
